# Test results taken from patent US11319324B2, “Pyrazolo-pyrrolo-pyrimidine-dione derivatives as P2X3 inhibitors” (Bayer Aktiengesellschaft, priority 2017, dated 2022).
# What was measured:
# Type in all cases: cell-based
# [1] = biological target: T1, human P2X2/3 receptors (Homo sapiens, UniProt P56373+Q9UBL9); experiment: Intracellular calcium measurement, antagonist activity at human P2X2/3 receptors (hP2X23 1321N1), Fluo8; conditions: for IC50: column 4); 1321N1 cells, human P2X2/3, Fluo8, agonist ATP at EC50; read-out: 4) hP2X2/3 IC50 [nM] (1321N1); for hP2X23/hP2X3* Selectivity (1321N1): ratio of column 4) hP2X2/3 to column 3) hP2X3, 1321N1
# T1 construct: expressed in transfected cells; host or cells: human astrocytoma 1321N1 (1312N1 [sic])
# T1 sequence (P56373 1-397): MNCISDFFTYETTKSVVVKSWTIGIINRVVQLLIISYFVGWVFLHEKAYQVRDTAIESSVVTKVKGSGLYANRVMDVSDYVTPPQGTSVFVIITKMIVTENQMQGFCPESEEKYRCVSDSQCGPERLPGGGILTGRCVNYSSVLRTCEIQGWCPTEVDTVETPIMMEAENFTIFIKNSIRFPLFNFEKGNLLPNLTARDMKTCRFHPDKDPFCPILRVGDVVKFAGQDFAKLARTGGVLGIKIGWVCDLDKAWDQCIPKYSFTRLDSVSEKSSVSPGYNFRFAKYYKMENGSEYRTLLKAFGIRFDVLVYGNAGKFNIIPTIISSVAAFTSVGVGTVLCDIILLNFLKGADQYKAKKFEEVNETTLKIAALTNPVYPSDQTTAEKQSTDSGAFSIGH
# T1 sequence (Q9UBL9 1-471): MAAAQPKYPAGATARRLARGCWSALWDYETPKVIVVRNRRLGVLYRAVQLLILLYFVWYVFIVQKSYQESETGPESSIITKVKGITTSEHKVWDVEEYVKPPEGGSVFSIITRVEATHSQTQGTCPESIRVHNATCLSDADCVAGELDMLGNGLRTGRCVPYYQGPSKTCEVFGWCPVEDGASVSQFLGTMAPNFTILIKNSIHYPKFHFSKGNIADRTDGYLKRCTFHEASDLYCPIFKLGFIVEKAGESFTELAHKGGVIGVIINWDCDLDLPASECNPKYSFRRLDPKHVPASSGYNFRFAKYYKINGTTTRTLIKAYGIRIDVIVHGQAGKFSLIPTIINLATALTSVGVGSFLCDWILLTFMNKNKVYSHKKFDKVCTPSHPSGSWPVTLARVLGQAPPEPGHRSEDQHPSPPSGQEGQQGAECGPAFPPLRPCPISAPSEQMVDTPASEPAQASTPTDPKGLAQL
# In short: (§1)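 Antagonism was assessed by decrease of the Fluo8 calcium signal after ATP challenge, with ATP dosed at the EC50 of whichever receptor was tested. Stable 1321N1 astrocytoma lines expressed either human P2X3 or both P2X2 and P2X3, and were dye-loaded 60 min before a 10 min compound incubation.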
# [2] = biological target: T2, human P2X3 receptor (Homo sapiens, UniProt P56373); experiment: Intracellular calcium measurement to assess antagonist activity at human P2X3 receptors (hP2X3 CHO), photina luminescence; set-up: expressed in transfected cells; host or cells: Chinese hamster ovary (CHO) cells; conditions: column 2), CHO cells, agonist α,β-methylene-ATP at EC50
# T2 sequence (P56373 1-397): T1 sequence (P56373 1-397)
# In short: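 Antagonism read as lowered photina luminescence after agonist stimulation in recombinant hP2X3/photina CHO cells. Cells seeded one day earlier (30 °C) and reconstituted with 5 μg/ml coelenterazine in 2 mM Ca-tyrode buffer for 3 h at 37 °C before measurement.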
# [3] = biological target: T2, human P2X3 receptor; experiment: Intracellular calcium measurement to assess antagonist activity at human P2X3 receptors (hP2X3 FLIPR); set-up: expressed in transfected cells; host or cells: human astrocytoma 1321N1 (1312N1 [sic]); conditions: head prints (1321N1); read-out: 1) hP2X3 IC50 [nM] (1321N1)
# Protocol: 1) Intracellular Calcium Measurement to Assess Antagonist Activity at Human P2X3 Receptors (hP2X3 FLIPR)
# A fluorescent imaging plate reader (FLEX/FLIPR station; Molecular Devices) was used to monitor intracellular calcium levels using the calcium-chelating dye Fluo-4 (Molecular Probes). The excitation and emission wavelengths used to monitor fluorescence were 470-495 nm and 515-575 nm, respectively. The human astrocytoma […] cells expressing purinergic receptors P2X3 (human) were plated at a density of 15,000 cells/well in collagen—coated 384-well plates approximately 20 hours before beginning the assay. […] The dye supernatant was removed and replaced with 45 μl probenecid buffer (Hank's balanced salt solution, 20 mM HEPES, 0.5 mM CaCl2, 0.5 mM MgCl2, 0.1% BSA, 5 mM probenecid, 10 mM D-glucose monohydrate, pH=7.4). The test compounds were added in a volume of 5 μl and allowed to incubate for 30 min at 37° C. The final assay DMSO concentration is 1%. […] The fluorescence was measured for an interval of 90 sec at 2 sec intervals and analyzed based on the increase in peak relative fluorescence units (RFU) compared to the basal fluorescence. Peak fluorescence was used to determine the response to agonist obtained at each concentration of test compound by the following equation: Response=100*(RFU(test compound)−RFU(control))/(RFU(DMSO)−RFU(control))
# The Examples were tested in triplicates per plate and mean values were plotted in Excel XLFit to determine IC50 values at the human P2X3 and human P2X2/3 receptors, percentage of maximal inhibition and the Hill coefficients.
# [4] = biological target: T2, human P2X3 receptor; experiment: Intracellular calcium measurement, antagonist activity at human P2X3 receptors (hP2X3 1321N1), Fluo8; set-up: expressed in transfected cells; host or cells: human astrocytoma 1321N1 (1312N1 [sic]); conditions: column 3); 1321N1 cells, human P2X3, Fluo8, agonist ATP at EC50
# In short: as §1
SMILES,IC50 [1],hP2X23/hP2X3* Selectivity (1321N1) [1],IC50 [2],IC50 [3],IC50 [4]
CC[C@H](C)N1Cc2c(n(CC(=O)Nc3ccc(Cl)cn3)c3cc(C(F)(F)F)nn3c2=O)C1=O [Example 22],2850 nM,35,81 nM,56 nM,82 nM
CC(C)[C@H](C)N1Cc2c(n(CC(=O)Nc3ccc(Cl)cn3)c3cc(C(C)(C)C)nn3c2=O)C1=O [Example 12],8800 nM,39,110 nM,59 nM,225 nM
COCC(C)N1Cc2c(n(CC(=O)Nc3ccc(F)cn3)c3cc(C(C)(C)C)nn3c2=O)C1=O (stereo not drawn) [Example 25],7150 nM,624,23 nM,10 nM,11 nM
CC(C)c1cc2n(CC(=O)Nc3ccc(F)cn3)c3c(c(=O)n2n1)CN(C(C)C)C3=O [Example 7],8000 nM,167,71 nM,28 nM,48 nM
CC(C)N1Cc2c(n(CC(=O)Nc3ccc(F)cn3)c3cc(C(F)(F)F)nn3c2=O)C1=O [Example 31],> 32000 nM,>116,120 nM,130 nM,277 nM
Cc1ccc(NC(=O)Cn2c3c(c(=O)n4nc(C(C)(C)C)cc24)CN([C@@H](C)C(C)C)C3=O)nc1 [Example 11],> 20600 nM,>31,750 nM,376 nM,657 nM
CC(C)(C)c1cc2n(CC(=O)Nc3ccc(F)cn3)c3c(c(=O)n2n1)CN(CC(=O)N1CCCC1)C3=O [Example 38],> 21000 nM,>34,175 nM,161 nM,627 nM
C[C@H](O)CN1Cc2c(n(CC(=O)Nc3ccc(F)cn3)c3cc(C(C)(C)C)nn3c2=O)C1=O [Example 54],> 32000 nM,>122,155 nM,215 nM,263 nM
Cc1ccc(NC(=O)Cn2c3c(c(=O)n4nc(C(C)(C)C)cc24)CN(C2CCC2)C3=O)nc1 [Example 19],8050 nM,11,430 nM,379 nM,740 nM
CC(C)(C)c1cc2n(CC(=O)Nc3ccc(F)cn3)c3c(c(=O)n2n1)CN(CC1CCOCC1)C3=O [Example 28],12300 nM,30,305 nM,146 nM,410 nM
CC(C)(C)c1cc2n(CC(=O)Nc3ccc(Cl)cn3)c3c(c(=O)n2n1)CN(C1COC1)C3=O [Example 48],8100 nM,31,555 nM,182 nM,263 nM
"CC(C)(C)c1cc2n(CC(=O)Nc3ccc(F)cn3)c3c(c(=O)n2n1)CN(CCN1CCOCC1)C3=O [Example 138, 2-{2-tert-butyl-6-[2-(morpholin-4-yl)ethyl]-5,8-dioxo-5,6,7,8-tetrahydro-4H-pyrazolo[1,5-a]pyrrolo[3,4-d]pyrimidin-4-yl}-N-(5-fluoropyridin-2-yl)acetamide]",9150 nM,107,32 nM,56 nM,86 nM
CC[C@@H](C)N1Cc2c(n(CC(=O)Nc3ccc(F)cn3)c3cc(C(F)(F)F)nn3c2=O)C1=O [Example 14],11500 nM,194,60 nM,30 nM,59 nM
COC[C@H](C)N1Cc2c(n(CC(=O)Nc3ccc(F)cn3)c3cc(C(C)(C)C)nn3c2=O)C1=O [Example 35],5650 nM,353,20 nM,12 nM,16 nM
CC(C)(C)c1cc2n(CC(=O)Nc3ccc(F)cn3)c3c(c(=O)n2n1)CN(C1CCCC1)C3=O [Example 26],2450 nM,54,20 nM,22 nM,46 nM
CC(C)[C@H](C)N1Cc2c(n(CC(=O)Nc3ccc(F)cn3)c3cc(C(C)(C)C)nn3c2=O)C1=O [Example 10],> 32000 nM,>101,38 nM,24 nM,317 nM
COC[C@@H](C)N1Cc2c(n(CC(=O)Nc3ccc(F)cn3)c3cc(C(C)(C)C)nn3c2=O)C1=O [Example 43],6500 nM,213,20 nM,19 nM,31 nM
CC(C)N1Cc2c(n(CC(=O)Nc3ccc(Cl)cn3)c3cc(C(C)(C)C)nn3c2=O)C1=O [Example 3],2850 nM,78,147 nM,32 nM,37 nM
Cc1ccc(NC(=O)Cn2c3c(c(=O)n4nc(C(C)C)cc24)CN(C(C)C)C3=O)nc1 [Example 9],> 19900 nM,>76,220 nM,107 nM,263 nM
CC(C)c1cc2n(CC(=O)Nc3ccc(F)cn3)c3c(c(=O)n2n1)CN(CC(C)(C)O)C3=O [Example 51],11500 nM,46,160 nM,311 nM,253 nM
"CC(C)N1Cc2c(n(CC(=O)Nc3ccc(F)cn3)c3cc(C(C)(C)C)nn3c2=O)C1=O [Example 1, 2-[2-tert-butyl-5,8-dioxo-6-(propan-2-yl)-5,6,7,8-tetrahydro-4H-pyrazolo[1,5-a]pyrrolo[3,4-d]pyrimidin-4-yl]-N-(5-fluoropyridin-2-yl)acetamide]",4900 nM,138,35 nM,22 nM,35 nM
CC[C@H](C)N1Cc2c(n(CC(=O)Nc3ccc(F)cn3)c3cc(C(F)(F)F)nn3c2=O)C1=O [Example 20],> 22000 nM,>41,375 nM,312 nM,537 nM
Cc1cc2n(CC(=O)Nc3ccc(F)cn3)c3c(c(=O)n2n1)CN([C@@H](C)C1CC1)C3=O [Example 50],8700 nM,56,215 nM,117 nM,155 nM
CC(C)c1cc2n(CC(=O)Nc3ccc(Cl)cn3)c3c(c(=O)n2n1)CN(C(C)C)C3=O [Example 8],3650 nM,76,51 nM,50 nM,48 nM
